What was measured:
GCN2 kinase = GCN2 kinase (Homo sapiens (Human), UniProt Q9P2K8); experiment: Biochemical assay for GCN2 (TR-FRET kinase activity assay); settings: 1 mM ATP, 3-hour incubation
Method in brief: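 TR-FRET assay with 2 nM GCN2, 130 nM GFP-eIF2α substrate, 0.2 mg/mL E. coli tRNA and 1 mM ATP; compounds (0.5% DMSO) reacted 3 h. Stopped with 20 mM EDTA plus 2 nM Tb-anti-peIF2α (pSer52), 60 min RT; 520/490 ratio converted to % inhibition, IC50 from four-parameter fit.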

[1] = system: ATF4 in HCT116 colorectal cancer cells; experiment: HCT116 amino acid starved (-AA) ATF4 assay (Western blot); type: cell-based; settings: Homo sapiens, HCT-116, 4 h
Method in brief: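 HCT116 cells switched to amino-acid-free EBSS (10% dialyzed FBS, 5.5 mM glucose, vitamins) with serial compound dilutions for 4 h at 37° C. Lysates Western blotted for phospho-GCN2 (Thr899), total GCN2, ATF4 and beta-actin; IC50 values derived from quantified bands.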

[2] = system: ATF4 in H929 multiple myeloma cells; experiment: H929 ATF4 ELISA assay (stimulation of cellular ATF4); type: cell-based; settings: 4 h, no thapsigargin
Experimental: H929 multiple myeloma cells (catalog #CRL-9068) were obtained from the American Type Culture Collection (ATTC, Manassas, VA). Briefly, cells were grown in RPMI-1640 medium supplemented with 20% heat-inactivated fetal bovine serum (catalog #A3840002, ThermoFisher Scientific, Waltham, MA), 1% Penicillin/Streptomycin/L-Glutamine (catalog #10378016, ThermoFisher Scientific, Waltham, MA), and 0.05 mM 2-mercaptoethanol (catalog #21985-023, ThermoFisher Scientific, Waltham, MA) at 37° C., 5% CO2, and 95% humidity. Cells were expanded until reaching one million five hundred thousand cells per mL at which time they were subcultured or harvested for assay use. One million five hundred thousand cells per well in 1 mL complete growth medium were dispensed into 12-well plates and incubated overnight. A serial dilution of test compound was added, and cells were incubated at 37° C., 5% CO2, and 95% for four hours. Cells were lysed then ATF4 levels were measured using an ELISA assay (Proteintech, Rosemont, IL). Absorbance is measured at 450 nm and 544 nM using a Synergy2 or equivalent reader (Biotek, Winooski VT). Data were analyzed using PRISM software (Graphpad, San Diego, CA) to calculate fold stimulation of cellular ATF4 relative to vehicle treated control.

CCRF-CEM leukemia cells = experiment: CCRF-CEM ASNase cell proliferation assay, phenotypic assay for cellular inhibition of GCN2; type: cell-based; settings: Homo sapiens; ASNase treated CCRF-CEM cells, 1 mU/mL ASNase, 72 h
Method in brief: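 Cells were seeded at ten thousand per well in RPMI-1640 with 10% heat-inactivated FBS and treated in triplicate with serially diluted compound plus 1 mU/mL ASNase for 72 h at 37 °C, 5% CO2. Resazurin was then added for 6 h, with fluorescence read at ex 540/em 600 nm to derive IC50 values.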

GCN2 kinase, sequence (Q9P2K8 whole entry): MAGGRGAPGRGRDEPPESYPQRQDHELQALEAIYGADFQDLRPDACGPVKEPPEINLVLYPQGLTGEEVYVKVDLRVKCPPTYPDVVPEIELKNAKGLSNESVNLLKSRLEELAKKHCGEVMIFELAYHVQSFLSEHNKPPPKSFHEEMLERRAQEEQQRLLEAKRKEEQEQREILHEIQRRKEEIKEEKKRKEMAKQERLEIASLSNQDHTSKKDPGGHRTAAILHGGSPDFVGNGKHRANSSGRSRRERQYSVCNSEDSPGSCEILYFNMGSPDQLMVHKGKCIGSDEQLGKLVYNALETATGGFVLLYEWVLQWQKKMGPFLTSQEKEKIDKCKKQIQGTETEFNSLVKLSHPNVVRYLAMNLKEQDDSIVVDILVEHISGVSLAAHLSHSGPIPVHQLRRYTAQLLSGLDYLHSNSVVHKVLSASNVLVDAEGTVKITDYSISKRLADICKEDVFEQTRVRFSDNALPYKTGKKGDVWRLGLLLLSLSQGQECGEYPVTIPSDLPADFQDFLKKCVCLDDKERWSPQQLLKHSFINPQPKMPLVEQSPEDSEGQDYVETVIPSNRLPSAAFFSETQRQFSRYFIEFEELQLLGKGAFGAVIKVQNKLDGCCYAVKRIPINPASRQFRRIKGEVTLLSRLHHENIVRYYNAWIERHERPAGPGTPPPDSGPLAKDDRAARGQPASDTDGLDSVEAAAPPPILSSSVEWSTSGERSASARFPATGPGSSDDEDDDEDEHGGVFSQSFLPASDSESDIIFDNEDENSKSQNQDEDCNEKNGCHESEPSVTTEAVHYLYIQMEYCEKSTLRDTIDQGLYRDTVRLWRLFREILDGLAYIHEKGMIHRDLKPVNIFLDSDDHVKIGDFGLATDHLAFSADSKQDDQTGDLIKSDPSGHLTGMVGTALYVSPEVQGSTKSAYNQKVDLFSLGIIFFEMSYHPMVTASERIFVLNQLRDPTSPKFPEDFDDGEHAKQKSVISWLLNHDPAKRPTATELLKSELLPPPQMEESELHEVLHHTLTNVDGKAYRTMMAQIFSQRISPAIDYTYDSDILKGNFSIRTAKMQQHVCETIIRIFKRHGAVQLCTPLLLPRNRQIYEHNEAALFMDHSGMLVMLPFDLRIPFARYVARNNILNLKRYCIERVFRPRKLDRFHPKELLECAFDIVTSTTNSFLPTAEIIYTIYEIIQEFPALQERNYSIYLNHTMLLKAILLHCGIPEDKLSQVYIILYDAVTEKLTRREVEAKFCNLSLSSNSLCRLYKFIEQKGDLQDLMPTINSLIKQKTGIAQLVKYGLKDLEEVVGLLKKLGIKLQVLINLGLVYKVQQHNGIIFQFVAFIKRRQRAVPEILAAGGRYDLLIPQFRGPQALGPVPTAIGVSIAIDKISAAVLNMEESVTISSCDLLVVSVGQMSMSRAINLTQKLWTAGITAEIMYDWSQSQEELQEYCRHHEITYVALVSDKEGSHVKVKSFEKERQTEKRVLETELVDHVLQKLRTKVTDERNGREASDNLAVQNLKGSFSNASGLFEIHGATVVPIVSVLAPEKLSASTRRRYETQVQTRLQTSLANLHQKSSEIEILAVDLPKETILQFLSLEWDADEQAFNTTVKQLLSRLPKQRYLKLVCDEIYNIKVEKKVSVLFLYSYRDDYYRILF

Question: Which results are given for `CNc1ncc2cc(-c3cccc(NS(=O)(=O)c4cc(Cl)cnc4OC)c3F)c(NC)nc2n1` [Compound 16]?
Answer: IC50 (GCN2 kinase): ≤ 100 nM; IC50 [1]: ≤ 100 nM; H929 NS ATF4 ELISA (fold stimulation of ATF4 relative to vehicle) [2]: +++ (“+++” refers to an ATF4 stim greater than 10 fold and less than or equal to 20 fold); IC50 (CCRF-CEM leukemia cells): ≤ 100 nM

— patent publication US11912668B2, “GCN2 and perk kinase inhibitors and methods of use thereof” (Deciphera Pharmaceuticals, LLC, priority 2020, dated 2024)
